Reference: patent publication US4822790A, “1-Sulfo-2-oxoazetidine derivatives and their production” (Takeda Chemical Industries, Ltd., priority 1980, dated 1989)
In brackets after ≈: the same amount, converted by molar mass. Structures can show the parent of a compound that is named as a salt.

Experiments:
Assay type in all cases: cell-based
[1] = test system: Escherichia coli T-7; experiment: Antibacterial test (MIC), Escherichia coli T-7; settings: Escherichia coli, T7; medium TSA; read-out: Minimum inhibitory concentration (MIC)
Excerpt: (§1) The following is media and compounds employed in the antibacterial test.
(§2) TSA=Trypticase soy agar [Baltimore Biologicals (U.S.A.)]
(§3) B-TSA=Blood trypticase soy agar

[2] = test system: Escherichia coli 0-111; experiment: Antibacterial test (MIC), Escherichia coli 0-111; settings: Escherichia coli, 0111; medium TSA; read-out: Minimum inhibitory concentration (MIC)
Excerpt: as §1, §2, §3

[3] = test system: Klebsiella pneumoniae TN 1711; experiment: MIC by agar dilution method (Experiment C), Klebsiella pneumoniae TN 1711; settings: TN1711, Trypticase Soy agar, about 10^8 CFU/ml, 37° C. overnight, read-out: Minimal inhibitory concentration (MIC)
Description: (§4) The tables given below set forth the minimal inhibitory concentrations (MIC) of some typical compounds [I]C as obtained in the working examples. The minimal inhibitory concentrations of the tested compounds are determined by the agar dilution method. Namely, 1.0 ml. of aqueous solution of the tested compounds diluted by serial dilutions is poured into test petri dish. Subsequently 9.0 ml. of Trypticase Soy agar is poured into the dish and mixed. On the mixed agar plate, one loopful of bacterial suspension (about 10^8 CFU/ml.) of test microorganism is streaked. After the incubation at 37° C. overnight, the lowest concentration of the tested compounds which cause apparently complete inhibition of growth of the test microorganism is taken to be minimal inhibitory concentration. (2) Klebsiella pneumoniae TN 1711

[4] = test system: Enterobacter cloacae IFO 12937; experiment: MIC by agar dilution method (Experiment C), Enterobacter cloacae IFO 12937; settings: IFO12937, Trypticase Soy agar, about 10^8 CFU/ml, 37° C. overnight, read-out: Minimal inhibitory concentration (MIC)
Description: as §4, with “(1) Enterobacter cloacae IFO 12937” for “(2) Klebsiella pneumoniae TN 1711”

[5] = test system: Streptococcus pneumoniae Type I; experiment: Antibacterial test (MIC), Streptococcus pneumoniae Type I; settings: Streptococcus pneumoniae, read-out: Minimum inhibitory concentration (MIC)
Excerpt: as §1, §2, §3

[6] = test system: Staphylococcus aureus 308A-1; experiment: Antibacterial test (MIC), Staphylococcus aureus 308A-1; settings: Staphylococcus aureus, 308A1, read-out: Minimum inhibitory concentration (MIC)
Excerpt: as §1, §2, §3

[7] = test system: Streptococcus pyogenes E-14; experiment: Antibacterial test (MIC), Streptococcus pyogenes E-14; settings: Streptococcus pyogenes, E14, read-out: Minimum inhibitory concentration (MIC)
Excerpt: as §1, §2, §3

[8] = test system: Streptococcus mitis America; experiment: Antibacterial test (MIC), Streptococcus mitis America; settings: Streptococcus mitis, read-out: Minimum inhibitory concentration (MIC)
Excerpt: as §1, §2, §3

[9] = test system: Pseudomonas aeruginosa IFO 3455; experiment: Antibacterial test (MIC), Pseudomonas aeruginosa IFO 3455; settings: Pseudomonas aeruginosa, IFO3455, read-out: Minimum inhibitory concentration (MIC)
Excerpt: as §1, §2, §3

Row | SMILES | MIC [1] [µg/mL] | MIC [2] [µg/mL] | MIC [3] [µg/mL] | MIC [4] [µg/mL] | also measured
1 | CCN1CCN(C(=O)NC(C(=O)NC2CN(S(=O)(=O)O)C2=O)c2csc(N)n2)C(=O)C1=O (stereo not drawn) [Compound D, Sodium 3-[2-(4-ethyl-2,3-dioxo-1-piperazinocarboxamido)-2-(2-amino-4-thiazolyl)-acetamido]-2-oxoazetidine-1-sulfonate] | > 100 | 0.1 |  |  | 
2 | CC(=O)OC[C@H]1[C@@H](NC(=O)/C(=N\OC(C)(C)C(=O)O)c2csc(N)n2)C(=O)N1S(=O)(=O)O (relative stereo) [Example No. 136C, cis-3-[2-(2-amino-4-thiazolyl)-2-(1-methyl-1-carboxyethyloxyimino)acetamido]-4-acetoxymethyl-2-oxoazetidine-1-sulfonic acid disodium salt (syn-isomer)] |  |  | 1.56 |  | 
3 | CC(=O)NC[C@H]1[C@@H](NC(=O)/C(=N\OC(C)(C)C(=O)O)c2csc(N)n2)C(=O)N1S(=O)(=O)O (relative stereo) [Example No. 147C, cis-3-[2-(2-amino-4-thiazolyl)-2-(1-methyl-1-carboxyethyloxyimino)acetamido]-4-acetamidomethyl-2-oxoazetidine-1-sulfonic acid (syn-isomer)] |  |  | 0.39 (≈ 0.792 µM) | 3.13 (≈ 6.36 µM) | 
4 | CC(C)(O/N=C(\C(=O)N[C@H]1C(=O)N(S(=O)(=O)O)[C@@H]1C(N)=O)c1csc(N)n1)C(=O)O (relative stereo) [Example No. 144C, trans-3-[2-(2-amino-4-thiazolyl)-2-(1-methyl-1-carboxyethyloxyimino)acetamido]-4-carbamoyl-2-oxoazetidine-1-sulfonic acid (syn-isomer)] |  |  | 3.13 (≈ 6.74 µM) | 6.25 (≈ 13.5 µM) | 
5 | CC(C)(O/N=C(\C(=O)N[C@H]1C(=O)N(S(=O)(=O)O)[C@H]1C(N)=O)c1csc(N)n1)C(=O)O (relative stereo) [Example No. 133C, cis-3-[2-(2-amino-4-thiazolyl)-2-(1-methyl-1-carboxyethyloxyimino)acetamido]-4-carbamoyl-2-oxoazetidine-1-sulfonic acid (syn-isomer)] |  |  | 0.39 (≈ 0.84 µM) | 1.56 (≈ 3.36 µM) | 
6 | CCCCCCCCN1CCN(C(=O)NC(C(=O)NC2CN(S(=O)(=O)O)C2=O)c2csc(N)n2)C(=O)C1=O (stereo not drawn) [Compound H, Sodium 3-[2-(4-n-octyl-2,3-dioxo-1-piperazinocarboxamido)-2-(2-amino-4-thiazolyl)-acetamido]2-oxoazetidine-1-sulfonate] | > 100 | 3.13 |  |  | MIC [5]: 3.13 µg/mL; MIC [6]: 3.13 µg/mL; MIC [7]: 3.13 µg/mL
7 | O=C(NC1CN(S(=O)(=O)O)C1=O)[C@H](NC(=O)N1CCN(N=Cc2cccs2)C1=O)c1ccccc1 (stereo partly drawn) [Compound K, Sodium 3-[D-2-[[2-oxo-3-(thiophen-2-aldoimino)-imidazolidin-1-yl]-carboxamido]-2-phenylacetamido]-2-oxoazetidine-1-sulfonate] | > 100 | 0.39 |  |  | 
8 | COC(=O)C[C@@H]1[C@@H](NC(=O)/C(=N\OC(C)(C)C(=O)O)c2csc(N)n2)C(=O)N1S(=O)(=O)O (relative stereo) [Example No. 158C, trans-3-[2-(2-amino-4-thiazolyl)-2-(1-methyl-1-carboxyethyloxyimino)acetamido]-4-methoxycarbonylmethyl-2-oxo-azetidine-1-sulfonic acid (syn-isomer)] |  |  | 6.25 (≈ 12.7 µM) | 3.13 (≈ 6.34 µM) | 
9 | CO/N=C(\C(=O)N[C@H]1C(=O)N(S(=O)(=O)O)[C@H]1COC(N)=O)c1csc(N)n1 (relative stereo) [Example No. 138C, sodium cis-3-[2-(2-amino-4-thiazolyl)-2-methoxyiminoacetamido]-4-carbamoyloxymethyl-2-oxoazetidine-1-sulfonate (syn-isomer)] |  |  | 6.25 |  | 
10 | O=C(NC1CN(S(=O)(=O)O)C1=O)[C@H](NC(=O)N1CCN(N=Cc2ccco2)C1=O)c1ccccc1 (stereo partly drawn) [Compound I, Sodium 3-[D-2-[(2-oxo-3-furfurylideneaminoimidazolidin-1-yl)-carboxamido]-2-phenylacetamido]-2-oxoazetidine-1-sulfonate] | > 100 | 3.13 |  |  | MIC [8]: 3.13 µg/mL; MIC [6]: 3.13 µg/mL; MIC [9]: 3.13 µg/mL
11 | CCCCCCCCN1CCN(C(=O)N[C@@H](C(=O)NC2CN(S(=O)(=O)O)C2=O)c2ccccc2)C(=O)C1=O (stereo partly drawn) [Compound G, Sodium 3-[D-2-(4-n-octyl-2,3-dioxo-1-piperazinocarboxamido)-2-phenylacetamido]-2-oxoazetidine-1-sulfonate] | > 100 | 0.78 |  |  | 
12 | COC(=O)[C@H]1[C@@H](NC(=O)/C(=N\OCC(=O)O)c2csc(N)n2)C(=O)N1S(=O)(=O)O (relative stereo) [Example No. 65C, cis-3-[2-(2-amino-4-thiazolyl)-2-carboxylmethyloxyiminoacetamido]-4-methoxycarbonyl-2-oxoazetidine-1-sulfonic acid disodium salt] |  |  | 0.2 | 6.25 | 
13 | COC(=O)[C@H]1[C@@H](NC(=O)/C(=N\OC(C)(C)C(=O)O)c2csc(N)n2)C(=O)N1S(=O)(=O)O (relative stereo) [Example No. 68C, cis-3-[2-(2-amino-4-thiazolyl)-2-(1-methyl-1-carboxyethyloxyimino)acetamido]-4-methoxycarbonyl-2-oxoazetidine-1-sulfonic acid disodium salt] |  |  | 0.78 | 3.13 | 
14 | C=CCO/N=C(\C(=O)N[C@H]1C(=O)N(S(=O)(=O)O)[C@H]1C(=O)OC)c1csc(N)n1 (relative stereo) [Example No. 72C, sodium cis-3-[2-(2-amino-4-thiazolyl)-2-allyloxyiminoacetamido]-4-methoxycarbonyl-2-oxoazetidine-1-sulfonate] |  |  |  | 1.56 | 
15 | CCN1CCN(C(=O)N[C@@H](C(=O)NC2CN(S(=O)(=O)O)C2=O)c2ccccc2)C(=O)C1=O (single isomer, unassigned) [Compound B, Sodium 3-[D(-)-N-(4-ethyl-2,3-dioxo-1-piperazinocarbonyl)-phenylglycinamido]-2-oxoazetidine-1-sulfonate] | > 100 | 0.2 |  |  | 
